# Measured values as given in PubChem BioAssay (NCI).
# “And” between values parts separate entries of the source, which are not always exact repeats. Equal values may be shown once.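 Exposure lasted 48 hours, with cells grown in 96-well plates and compounds tested at five concentrations. Abbreviation: GI50, concentration required for 50% inhibition of growth. TGI marks complete inhibition of growth.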
# Tested on: HOP-92 NSCLC
# Test: DTP human tumour cell line panel, 48 h
row,Structure (SMILES),TGI
1,O=C1CC2(CCC(O)(c3ccc4ccccc4c3)C(C(=O)c3ccc4ccccc4c3)C2)C(=O)c2ccccc2N1 (stereo not given),> 100 µM
2,COc1cc2c(cc1OC)C(C(c1ccccc1)c1ccccc1)N(C)CC2 (stereo not given),> 70.8 µM
3,CCOC(=O)N1CCC(N[C@@H]2c3cc4c(cc3C(c3cc(OC)c(O)c(OC)c3)C3C(=O)OC[C@@H]32)OCO4)CC1 (stereo not given in full),3.5 µM and 3.67 µM
4,C[N+](C)([O-])CCOc1cc2c(c3ccccc13)-c1ccccc1C2=O,> 68.5 µM
5,CCOC(=O)C1S/C(=N\C(=N)N[N+](=O)[O-])N=C1C (stereo not given),> 100 µM
6,NS(=O)(=O)c1ccc(NC(=S)/N=C/C2=C(O)c3ccccc3C2=O)cc1,> 100 µM
7,O=C1NC2c3c(I)sc(I)c3C(O)C2O1 (stereo not given),> 100 µM
8,Cc1nc(C)c(C(=O)NNC(=O)C[N+](C)(C)C)cc1C(=O)NNC(=O)C[N+](C)(C)C,> 100 µM
9,CNc1cc2c(c3ccccc13)C(CCl)CN2C(=O)c1cc2cc(OC)c(OC)c(OC)c2[nH]1 (stereo not given),0.0466 µM
10,Cc1cccc(C)c1NC(=O)C(Cc1c[nH]c2ccccc12)NC(=O)OCc1ccccc1 (stereo not given),62.4 µM
11,O=C1OCC/C1=N/O,> 100 µM
12,O=c1oc2cc(O)ccc2c(O)c1C(c1ccccc1)c1c(O)c2ccc(O)cc2oc1=O,> 100 µM
13,Cc1c(/C=N\NC(=S)NCCNC(=S)N/N=C\c2c(C)n(C)n(-c3ccccc3)c2=O)c(=O)n(-c2ccccc2)n1C,> 100 µM
14,CCOC(=O)c1c(-c2ccc(O)c(OC)c2)c(C#N)c(=S)n(C2OC(CO)C(O)C(O)C2O)c1-c1ccccc1 (stereo not given),> 100 µM
15,CCCCCCCCCCCC[S+](C)C,9.48 µM
16,C=C1CC(C#N)(C#N)[C@H]2C3CCCC3C[C@@H]12 (stereo not given in full) (tested in a mixture with another compound),35 µM

# Tested on: RXF 393 renal
# Test: DTP human tumour cell line panel, 48 h
row,Structure (SMILES),TGI
1,CCN1CN(c2ccccc2)C2(CCN(CC3COc4ccccc4O3)CC2)C1=O (stereo not given),40 µM
2,O=C1C=C/C(=N\N=C(c2ccccc2)c2ccccc2)O1,> 10 µM
3,N[C@@H](Cc1ccccc1)C(=O)N1CCC[C@@H]1P(=O)(Oc1ccccc1)Oc1ccccc1,> 100 µM
4,Cc1ccc(/C=N\NC2c3cc(Cl)ccc3Nc3nc(=O)[nH]c(C)c32)cc1 (stereo not given),> 100 µM
5,O=c1[nH][nH]c(=O)n1CCCCCCn1c(=O)[nH][nH]c1=O,> 100 µM
6,COc1ccc(-c2nc(SCC(=O)NNC(=S)Nc3ccccc3)[nH]c2-c2ccc(OC)cc2)cc1,43.9 µM
7,CCCCCC#CCOC(=O)C(=[N+]=[N-])P(=O)(c1ccccc1)c1ccccc1,> 10 µM
8,COc1ccc(C(=O)/C=C/c2ccc(OCCCOc3ccc(/C=C/C(=O)c4ccc(OC)cc4)cc3)cc2)cc1,> 100 µM
9,CCOc1cc(/C=C2/C(C)=NN(c3cccc(Cl)c3)/C2=N/c2nc3ccccc3s2)ccc1O,> 100 µM
10,COc1cc(OC)cc(C(=O)CC(=O)c2cc(OC)cc(OC)c2)c1,> 100 µM
11,O=C(O)[C@H]1CCCN1CP(=O)(O)CN1CCC[C@@H]1C(=O)O,> 100 µM
12,O=C1CC2(CCC(O)(c3ccc4ccccc4c3)C(C(=O)c3ccc4ccccc4c3)C2)C(=O)c2ccccc2N1 (stereo not given),> 100 µM
13,COc1cc2c(cc1OC)C(C(c1ccccc1)c1ccccc1)N(C)CC2 (stereo not given),60.2 µM
14,C[N+](C)([O-])CCOc1cc2c(c3ccccc13)-c1ccccc1C2=O,33.2 µM
15,CCOC(=O)C1S/C(=N\C(=N)N[N+](=O)[O-])N=C1C (stereo not given),> 100 µM
16,O=[N+]([O-])C(=C(Nc1cccc2cccnc12)Nc1cccc2cccnc12)C(Cl)=C(Cl)Cl,> 100 µM
17,NS(=O)(=O)c1ccc(NC(=S)/N=C/C2=C(O)c3ccccc3C2=O)cc1,> 100 µM
18,O=C1NC2c3c(I)sc(I)c3C(O)C2O1 (stereo not given),> 100 µM
19,Cc1nc(C)c(C(=O)NNC(=O)C[N+](C)(C)C)cc1C(=O)NNC(=O)C[N+](C)(C)C,> 100 µM
20,Cc1cccc(C)c1NC(=O)C(Cc1c[nH]c2ccccc12)NC(=O)OCc1ccccc1 (stereo not given),36.4 µM
21,S=C1NC2=C(CSC/C2=C\c2cccc(Br)c2)C(c2cccc(Br)c2)N1 (stereo not given),> 100 µM
22,CCCCCCCCCCCCCCCCNc1cccc2ccccc12,> 100 µM
23,O=C1OCC/C1=N/O,> 100 µM
24,Cc1ccc(C2=CC(=O)OC(C[P+](c3ccccc3)(c3ccccc3)c3ccccc3)(c3ccccc3)O2)cc1 (stereo not given),73.2 µM
25,O=c1oc2cc(O)ccc2c(O)c1C(c1ccccc1)c1c(O)c2ccc(O)cc2oc1=O,> 100 µM
26,Cc1c(/C=N\NC(=S)NCCNC(=S)N/N=C\c2c(C)n(C)n(-c3ccccc3)c2=O)c(=O)n(-c2ccccc2)n1C,> 100 µM
27,O=P(O)(O)C(N=C(Nc1ccccc1)Nc1ccccc1)P(=O)(O)O,> 100 µM
28,CCOC(=O)c1c(-c2ccc(O)c(OC)c2)c(C#N)c(=S)n(C2OC(CO)C(O)C(O)C2O)c1-c1ccccc1 (stereo not given),> 100 µM
29,CCCCCCCCCCCC[S+](C)C,9.38 µM
30,C=C1CC(C#N)(C#N)[C@H]2C3CCCC3C[C@@H]12 (stereo not given in full) (tested in a mixture with another compound),41.7 µM

# Tested on: NCI-H522 lung
# Test: DTP human tumour cell line panel, 48 h
Structure (SMILES),TGI,GI50
CCN1CN(c2ccccc2)C2(CCN(CC3COc4ccccc4O3)CC2)C1=O (stereo not given),40.8 µM,
Cc1ccc(/C=N\NC2c3cc(Cl)ccc3Nc3nc(=O)[nH]c(C)c32)cc1 (stereo not given),> 100 µM,
O=c1[nH][nH]c(=O)n1CCCCCCn1c(=O)[nH][nH]c1=O,> 100 µM,
CC(=O)NC1C(OCc2ccccc2)OC(CO)C(O)C1OCC(=O)N[C@@H](C)C(=O)N[C@H](CCC(=O)NCCCNc1c2ccccc2nc2cccc([N+](=O)[O-])c12)C(N)=O (stereo not given in full),0.0383 µM,
COc1ccc(-c2nc(SCC(=O)NNC(=S)Nc3ccccc3)[nH]c2-c2ccc(OC)cc2)cc1,42.4 µM,
CCOc1cc(/C=C2/C(C)=NN(c3cccc(Cl)c3)/C2=N/c2nc3ccccc3s2)ccc1O,52.7 µM,
O=C(O)COc1ccccc1C(=O)Nc1ccccc1,> 100 µM,
COc1ccc(C2c3cn[nH]c3CC3CCCCC32)cc1 (stereo not given),36.3 µM,
O=C(O)[C@H]1CCCN1CP(=O)(O)CN1CCC[C@@H]1C(=O)O,> 100 µM,
COc1cc2c(cc1OC)C(C(c1ccccc1)c1ccccc1)N(C)CC2 (stereo not given),> 100 µM,
CCOC(=O)N1CCC(N[C@@H]2c3cc4c(cc3C(c3cc(OC)c(O)c(OC)c3)C3C(=O)OC[C@@H]32)OCO4)CC1 (stereo not given in full),7.72 µM and 7.21 µM,1.41 µM and 3.08 µM
C[N+](C)([O-])CCOc1cc2c(c3ccccc13)-c1ccccc1C2=O,26.5 µM,
CCOC(=O)C1S/C(=N\C(=N)N[N+](=O)[O-])N=C1C (stereo not given),> 100 µM,
O=[N+]([O-])C(=C(Nc1cccc2cccnc12)Nc1cccc2cccnc12)C(Cl)=C(Cl)Cl,56.3 µM,
NS(=O)(=O)c1ccc(NC(=S)/N=C/C2=C(O)c3ccccc3C2=O)cc1,> 100 µM,
Cc1cccc(C)c1NC(=O)C(Cc1c[nH]c2ccccc12)NC(=O)OCc1ccccc1 (stereo not given),72.7 µM,
S=C1NC2=C(CSC/C2=C\c2cccc(Br)c2)C(c2cccc(Br)c2)N1 (stereo not given),> 100 µM,
CCCCCCCCCCCCCCCCNc1cccc2ccccc12,> 100 µM,
O=C1OCC/C1=N/O,> 100 µM,
CC(O)CNC(=O)C(C)Oc1ccc(OCC2CCCCC2)cc1 (stereo not given),> 100 µM,
Cc1ccc(C2=CC(=O)OC(C[P+](c3ccccc3)(c3ccccc3)c3ccccc3)(c3ccccc3)O2)cc1 (stereo not given),26 µM,
O=P(O)(O)C(N=C(Nc1ccccc1)Nc1ccccc1)P(=O)(O)O,> 100 µM,
CCCCCCCCCCCC[S+](C)C,15.6 µM,
